For experiment [1], the target named is Peroxisome proliferator-activated receptor gamma/Nuclear receptor coactivator 1 (Homo sapiens, UniProt P37231). Nature of the experiment: TR-FRET dose response biochemical High Throughput Screening assay for agonists of the steroid receptor coactivator 1 (SRC-1) recruitment by the peroxisome proliferator-activated receptor gamma (PPAR gamma): non-selective agonists. [Related pubchem assays (depositor defined):AID1300, AID1808, AID504735, AID631]. It counts as protein assay. For orientation: In TR-FRET formats the signal depends on donor and acceptor labels being close together.
Sequence of Peroxisome proliferator-activated receptor gamma/Nuclear receptor coactivator 1 (P37231 whole entry): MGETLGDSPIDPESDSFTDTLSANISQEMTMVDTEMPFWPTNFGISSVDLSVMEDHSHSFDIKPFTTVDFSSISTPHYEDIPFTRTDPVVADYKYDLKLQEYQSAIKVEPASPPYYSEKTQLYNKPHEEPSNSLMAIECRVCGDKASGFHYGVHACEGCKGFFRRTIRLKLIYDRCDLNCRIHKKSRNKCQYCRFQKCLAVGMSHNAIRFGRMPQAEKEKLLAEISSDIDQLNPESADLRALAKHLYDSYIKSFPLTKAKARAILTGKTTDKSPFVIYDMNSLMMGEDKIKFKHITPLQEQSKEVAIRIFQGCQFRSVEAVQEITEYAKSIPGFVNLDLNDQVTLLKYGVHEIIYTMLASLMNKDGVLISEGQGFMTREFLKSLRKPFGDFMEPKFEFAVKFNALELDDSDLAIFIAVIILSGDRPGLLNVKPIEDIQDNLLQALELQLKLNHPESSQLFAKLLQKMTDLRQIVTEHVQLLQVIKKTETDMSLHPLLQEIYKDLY
Sequence of Peroxisome proliferator-activated receptor gamma/Nuclear receptor coactivator 1 (Q15788 whole entry, further chain): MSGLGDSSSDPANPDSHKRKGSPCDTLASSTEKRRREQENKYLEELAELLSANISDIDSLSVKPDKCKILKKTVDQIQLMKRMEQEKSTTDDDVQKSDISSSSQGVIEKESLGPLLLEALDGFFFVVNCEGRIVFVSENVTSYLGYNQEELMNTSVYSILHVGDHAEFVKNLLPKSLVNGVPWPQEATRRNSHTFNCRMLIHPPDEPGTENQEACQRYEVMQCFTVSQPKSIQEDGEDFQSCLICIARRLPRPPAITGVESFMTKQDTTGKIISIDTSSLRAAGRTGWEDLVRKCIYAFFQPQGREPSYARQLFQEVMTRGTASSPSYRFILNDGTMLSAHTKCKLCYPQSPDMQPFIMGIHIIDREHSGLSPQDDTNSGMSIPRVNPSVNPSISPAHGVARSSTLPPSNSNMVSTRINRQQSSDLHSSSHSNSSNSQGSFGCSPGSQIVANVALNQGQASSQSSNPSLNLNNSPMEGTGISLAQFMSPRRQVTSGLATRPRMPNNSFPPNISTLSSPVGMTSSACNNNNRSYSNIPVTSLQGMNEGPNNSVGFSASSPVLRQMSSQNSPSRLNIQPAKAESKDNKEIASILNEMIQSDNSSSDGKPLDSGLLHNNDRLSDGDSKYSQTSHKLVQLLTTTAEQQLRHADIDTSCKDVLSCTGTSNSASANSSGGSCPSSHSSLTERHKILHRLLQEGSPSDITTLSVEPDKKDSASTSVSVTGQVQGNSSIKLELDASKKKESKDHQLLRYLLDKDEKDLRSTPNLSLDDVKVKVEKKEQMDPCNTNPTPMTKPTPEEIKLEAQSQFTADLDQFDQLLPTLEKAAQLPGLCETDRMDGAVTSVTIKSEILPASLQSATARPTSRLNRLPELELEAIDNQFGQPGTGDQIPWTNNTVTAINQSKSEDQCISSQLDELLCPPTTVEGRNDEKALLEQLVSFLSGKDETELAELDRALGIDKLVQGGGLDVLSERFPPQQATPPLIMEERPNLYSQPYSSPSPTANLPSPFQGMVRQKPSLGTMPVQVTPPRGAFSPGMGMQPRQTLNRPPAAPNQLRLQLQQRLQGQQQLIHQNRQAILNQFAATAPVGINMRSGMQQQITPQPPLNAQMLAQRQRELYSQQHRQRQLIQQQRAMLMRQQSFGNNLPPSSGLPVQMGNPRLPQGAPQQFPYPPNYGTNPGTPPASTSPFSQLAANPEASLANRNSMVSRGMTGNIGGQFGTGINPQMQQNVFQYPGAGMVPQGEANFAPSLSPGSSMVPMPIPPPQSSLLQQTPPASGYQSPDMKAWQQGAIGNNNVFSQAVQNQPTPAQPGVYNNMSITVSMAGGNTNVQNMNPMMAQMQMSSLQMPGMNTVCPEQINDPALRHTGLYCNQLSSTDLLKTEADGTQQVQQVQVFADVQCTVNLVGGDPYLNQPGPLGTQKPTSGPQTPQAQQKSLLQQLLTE

Experiment [2] relates to Streptococcus sp. 'group A'. Nature of the experiment: Streptococcus pyogenes SK(-)GAS viability under kanamycin – luminescence, BacTiterGlo, confirmation, counter-screen for streptokinase expression inhibitor project, dose response (AID 1900). It counts as functional, organism-based. On the technique in general: Counterscreens check selectivity or assay interference.
The target in experiment [3] is Peroxisome proliferator-activated receptor gamma/Nuclear receptor coactivator 3 (Homo sapiens, UniProt P37231). Put plainly: TR-FRET dose response biochemical High Throughput Screening assay for agonists of the steroid receptor coactivator 3 (SRC-3) recruitment by the peroxisome proliferator-activated receptor gamma (PPAR gamma): non-selective agonists. [Related pubchem assays: 1301 (Confirmation screen.), 1048 (Primary screen.)]. It counts as functional.

Another experiment concerns the target T1, Streptokinase A (Streptococcus pyogenes serotype M1, UniProt P10520).
T1 sequence (P10520 whole entry): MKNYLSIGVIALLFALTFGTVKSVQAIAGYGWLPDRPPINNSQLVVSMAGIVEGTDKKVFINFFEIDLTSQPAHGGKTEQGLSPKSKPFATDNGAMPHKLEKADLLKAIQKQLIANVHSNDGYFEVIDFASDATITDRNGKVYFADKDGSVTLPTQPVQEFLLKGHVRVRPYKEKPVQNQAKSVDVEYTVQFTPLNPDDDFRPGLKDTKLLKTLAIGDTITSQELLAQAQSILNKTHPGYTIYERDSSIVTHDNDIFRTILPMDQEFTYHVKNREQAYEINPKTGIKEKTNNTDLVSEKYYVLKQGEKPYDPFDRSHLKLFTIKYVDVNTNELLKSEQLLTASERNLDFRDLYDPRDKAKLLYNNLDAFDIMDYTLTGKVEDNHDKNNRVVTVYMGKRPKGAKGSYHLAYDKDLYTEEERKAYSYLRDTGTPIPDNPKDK
Put plainly: viability-normalized secreted streptokinase activity reduction – plasminogen activation absorbance, OD405, dose response (AID 1914).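 Also: secreted streptokinase activity via plasminogen activation per viability signal from cell pellet.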 It counts as functional, Streptococcus pyogenes M1 GAS.

Experiment [4] has as its target Peroxisome proliferator-activated receptor gamma/Nuclear receptor coactivator 2 (Homo sapiens, UniProt P37231). Nature of the experiment: TR-FRET dose response biochemical High Throughput Screening assay for agonists of the steroid receptor coactivator 2 (SRC-2) recruitment by the peroxisome proliferator-activated receptor gamma (PPAR gamma): non-selective agonists. [Related pubchem assays: 1297, 1032 ]. It counts as functional.

The next experiment has as its system Streptococcus. Put plainly: GAS UMAA2166 growth inhibition – luminescence, BacTiterGlo, counter-screen for streptokinase expression inhibitor project, dose response (AID 1915).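 Also: potency for reduction of bacterial viability or growth.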 The experiment is classed as functional, organism-based.
For another experiment, the target named is Nonstructural protein 1 (Influenza A virus, UniProt Q194T2). It counts as functional, Influenza A virus (A/California/07/2009(H1N1)).
Sequence of Nonstructural protein 1 (Q194T2 whole entry): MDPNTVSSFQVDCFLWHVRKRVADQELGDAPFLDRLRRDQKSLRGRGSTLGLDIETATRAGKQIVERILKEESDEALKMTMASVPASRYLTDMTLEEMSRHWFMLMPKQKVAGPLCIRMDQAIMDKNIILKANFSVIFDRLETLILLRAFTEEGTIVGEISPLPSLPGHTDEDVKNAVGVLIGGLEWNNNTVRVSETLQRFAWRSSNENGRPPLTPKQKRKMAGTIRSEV
A further experiment deals with T2, Exodeoxyribonuclease V (Escherichia coli (strain K12), UniProt P04993+P07648+P08394).
T2 sequence (P04993 whole entry): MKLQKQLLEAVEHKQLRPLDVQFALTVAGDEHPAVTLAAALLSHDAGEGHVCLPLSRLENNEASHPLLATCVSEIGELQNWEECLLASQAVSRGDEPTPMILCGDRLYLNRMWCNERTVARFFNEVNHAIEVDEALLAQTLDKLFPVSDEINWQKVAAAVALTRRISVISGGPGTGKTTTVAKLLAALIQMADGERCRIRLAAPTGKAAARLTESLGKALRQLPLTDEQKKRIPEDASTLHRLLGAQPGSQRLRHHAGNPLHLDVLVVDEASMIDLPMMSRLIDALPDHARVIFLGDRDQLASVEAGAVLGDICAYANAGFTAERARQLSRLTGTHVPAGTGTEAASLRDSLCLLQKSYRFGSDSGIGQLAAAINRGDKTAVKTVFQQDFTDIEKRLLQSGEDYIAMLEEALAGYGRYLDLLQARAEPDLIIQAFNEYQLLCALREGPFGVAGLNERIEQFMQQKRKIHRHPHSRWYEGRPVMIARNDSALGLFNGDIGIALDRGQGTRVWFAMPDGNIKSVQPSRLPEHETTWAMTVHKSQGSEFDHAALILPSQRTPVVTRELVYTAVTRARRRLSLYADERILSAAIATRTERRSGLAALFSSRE
T2 sequence (P07648 whole entry): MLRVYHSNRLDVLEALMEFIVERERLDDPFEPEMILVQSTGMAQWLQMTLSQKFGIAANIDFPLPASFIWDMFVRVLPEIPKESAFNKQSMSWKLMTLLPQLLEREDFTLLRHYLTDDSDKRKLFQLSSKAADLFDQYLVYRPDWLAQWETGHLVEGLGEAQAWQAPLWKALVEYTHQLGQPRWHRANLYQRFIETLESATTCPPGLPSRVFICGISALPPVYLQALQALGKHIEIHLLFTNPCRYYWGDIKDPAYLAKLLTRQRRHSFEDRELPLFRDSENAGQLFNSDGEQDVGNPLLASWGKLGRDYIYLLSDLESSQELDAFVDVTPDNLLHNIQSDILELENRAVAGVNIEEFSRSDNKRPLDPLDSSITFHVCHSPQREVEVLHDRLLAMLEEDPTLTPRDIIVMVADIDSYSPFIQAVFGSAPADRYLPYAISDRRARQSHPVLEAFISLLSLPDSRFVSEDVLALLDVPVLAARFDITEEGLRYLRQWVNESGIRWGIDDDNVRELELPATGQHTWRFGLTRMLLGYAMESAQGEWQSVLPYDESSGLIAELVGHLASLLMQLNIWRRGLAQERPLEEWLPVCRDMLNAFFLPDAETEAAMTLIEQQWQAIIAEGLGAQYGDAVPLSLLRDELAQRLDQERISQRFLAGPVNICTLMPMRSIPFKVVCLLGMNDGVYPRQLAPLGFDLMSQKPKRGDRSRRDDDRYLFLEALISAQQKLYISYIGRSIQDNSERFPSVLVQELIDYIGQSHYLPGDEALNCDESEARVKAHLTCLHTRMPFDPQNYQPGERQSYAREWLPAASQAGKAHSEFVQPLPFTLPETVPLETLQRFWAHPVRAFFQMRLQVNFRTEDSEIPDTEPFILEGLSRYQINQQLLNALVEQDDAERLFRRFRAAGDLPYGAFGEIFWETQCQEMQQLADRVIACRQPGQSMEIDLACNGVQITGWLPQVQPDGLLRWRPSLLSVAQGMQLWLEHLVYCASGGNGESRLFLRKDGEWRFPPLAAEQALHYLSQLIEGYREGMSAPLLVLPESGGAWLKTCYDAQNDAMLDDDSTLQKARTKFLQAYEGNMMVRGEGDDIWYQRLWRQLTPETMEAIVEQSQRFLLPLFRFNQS
T2 sequence (P08394 whole entry): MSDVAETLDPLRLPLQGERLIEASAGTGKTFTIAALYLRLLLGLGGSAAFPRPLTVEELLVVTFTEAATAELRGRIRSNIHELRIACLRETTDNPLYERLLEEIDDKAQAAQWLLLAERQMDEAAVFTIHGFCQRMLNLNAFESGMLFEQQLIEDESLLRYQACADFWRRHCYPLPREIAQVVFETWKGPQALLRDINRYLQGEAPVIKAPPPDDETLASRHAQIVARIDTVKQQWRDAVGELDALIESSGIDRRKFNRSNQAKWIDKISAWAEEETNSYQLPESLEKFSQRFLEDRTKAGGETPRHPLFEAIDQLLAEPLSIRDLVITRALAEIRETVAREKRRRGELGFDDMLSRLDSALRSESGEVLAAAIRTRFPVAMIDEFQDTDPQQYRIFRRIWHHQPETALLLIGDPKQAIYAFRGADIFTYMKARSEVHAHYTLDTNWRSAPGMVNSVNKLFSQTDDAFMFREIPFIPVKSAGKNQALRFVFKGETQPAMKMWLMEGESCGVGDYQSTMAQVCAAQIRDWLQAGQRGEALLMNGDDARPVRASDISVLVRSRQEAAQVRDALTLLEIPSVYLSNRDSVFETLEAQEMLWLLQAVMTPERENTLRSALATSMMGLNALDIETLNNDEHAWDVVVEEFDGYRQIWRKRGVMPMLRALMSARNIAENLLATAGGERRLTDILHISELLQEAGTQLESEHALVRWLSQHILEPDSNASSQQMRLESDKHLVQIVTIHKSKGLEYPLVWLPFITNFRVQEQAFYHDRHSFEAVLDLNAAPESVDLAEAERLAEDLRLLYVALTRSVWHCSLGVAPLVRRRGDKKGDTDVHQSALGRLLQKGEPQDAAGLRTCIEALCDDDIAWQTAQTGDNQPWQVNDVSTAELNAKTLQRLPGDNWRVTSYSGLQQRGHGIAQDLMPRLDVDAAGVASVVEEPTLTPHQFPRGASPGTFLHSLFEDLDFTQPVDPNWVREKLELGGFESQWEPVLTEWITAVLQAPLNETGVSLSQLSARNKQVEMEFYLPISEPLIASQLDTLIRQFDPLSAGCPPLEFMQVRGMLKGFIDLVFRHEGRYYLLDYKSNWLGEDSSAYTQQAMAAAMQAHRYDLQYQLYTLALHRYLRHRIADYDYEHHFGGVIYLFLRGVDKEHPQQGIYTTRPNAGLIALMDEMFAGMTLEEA
Put plainly: RecBCD inhibition via phage-restricted bacterial growth – absorbance, V66 E. coli, mutant T4 phage, counter-screen for AddAB inhibitor project, dose response (AID 492957). It counts as functional, cell-based, Escherichia coli str. K-12 substr. MG1655.

A short description of experiment [5]: Counterscreen for AddAB inhibitors: absorbance-based bacterial cell-based high throughput dose response assay for inhibitors of bacterial viability. [Related pubchem assays (depositor defined):AID435030, AID449728, AID449731, AID488942, AID488955, AID488956]. It counts as functional.
The target in experiment [6] is T3, Tyrosine-protein phosphatase non-receptor type 7 (Homo sapiens, UniProt P35236).
T3 sequence (P35236 whole entry): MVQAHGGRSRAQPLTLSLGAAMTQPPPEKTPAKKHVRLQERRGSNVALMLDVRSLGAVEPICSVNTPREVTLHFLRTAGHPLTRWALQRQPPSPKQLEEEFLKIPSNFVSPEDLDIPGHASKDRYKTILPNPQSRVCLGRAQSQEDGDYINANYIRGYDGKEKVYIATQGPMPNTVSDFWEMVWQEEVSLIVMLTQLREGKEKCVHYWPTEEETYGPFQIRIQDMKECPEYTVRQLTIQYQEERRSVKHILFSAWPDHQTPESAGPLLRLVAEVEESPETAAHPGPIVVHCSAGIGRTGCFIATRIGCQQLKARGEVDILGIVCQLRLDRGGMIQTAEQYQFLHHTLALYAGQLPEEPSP
The experiment is classed as functional.

Experiment [7] addresses T4, Tyrosine-protein phosphatase non-receptor type 22 (Homo sapiens, UniProt Q9Y2R2).
T4 sequence (Q9Y2R2 whole entry): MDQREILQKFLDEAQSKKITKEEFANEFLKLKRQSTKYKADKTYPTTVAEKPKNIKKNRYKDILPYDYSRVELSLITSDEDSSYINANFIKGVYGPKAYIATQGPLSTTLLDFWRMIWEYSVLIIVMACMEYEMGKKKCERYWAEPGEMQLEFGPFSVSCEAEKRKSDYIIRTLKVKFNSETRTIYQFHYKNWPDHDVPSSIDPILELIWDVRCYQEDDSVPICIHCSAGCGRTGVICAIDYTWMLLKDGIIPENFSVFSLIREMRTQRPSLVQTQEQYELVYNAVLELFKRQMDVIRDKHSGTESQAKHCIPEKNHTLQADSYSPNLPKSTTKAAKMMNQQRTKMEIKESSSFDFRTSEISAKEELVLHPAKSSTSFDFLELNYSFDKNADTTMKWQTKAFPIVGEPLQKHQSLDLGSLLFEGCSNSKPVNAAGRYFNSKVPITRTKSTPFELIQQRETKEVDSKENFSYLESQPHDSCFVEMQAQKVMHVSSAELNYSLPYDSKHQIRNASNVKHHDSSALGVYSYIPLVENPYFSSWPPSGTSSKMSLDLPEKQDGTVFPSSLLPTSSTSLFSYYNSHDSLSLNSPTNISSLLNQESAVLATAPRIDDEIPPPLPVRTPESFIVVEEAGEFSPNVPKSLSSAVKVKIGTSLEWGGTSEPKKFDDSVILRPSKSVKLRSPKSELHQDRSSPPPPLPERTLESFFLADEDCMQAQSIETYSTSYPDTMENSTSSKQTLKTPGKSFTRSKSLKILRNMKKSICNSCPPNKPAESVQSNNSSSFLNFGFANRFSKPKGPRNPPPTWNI
The experiment is classed as functional.

The target in experiment [8] is T4, Tyrosine-protein phosphatase non-receptor type 22. It counts as functional. The source holds these as a separate data set.

Usually EC50 stands for the concentration at which the effect is half-maximal. For orientation: IC50 means the concentration that inhibits the measured activity by half.

Activity calls are given as the source filed them. Where only a bound is given, the exact number is not on record here.

Sequence of Peroxisome proliferator-activated receptor gamma/Nuclear receptor coactivator 2 (P37231 whole entry): as the sequence (P37231 whole entry) above
Sequence of Peroxisome proliferator-activated receptor gamma/Nuclear receptor coactivator 2 (Q15596 whole entry, further chain): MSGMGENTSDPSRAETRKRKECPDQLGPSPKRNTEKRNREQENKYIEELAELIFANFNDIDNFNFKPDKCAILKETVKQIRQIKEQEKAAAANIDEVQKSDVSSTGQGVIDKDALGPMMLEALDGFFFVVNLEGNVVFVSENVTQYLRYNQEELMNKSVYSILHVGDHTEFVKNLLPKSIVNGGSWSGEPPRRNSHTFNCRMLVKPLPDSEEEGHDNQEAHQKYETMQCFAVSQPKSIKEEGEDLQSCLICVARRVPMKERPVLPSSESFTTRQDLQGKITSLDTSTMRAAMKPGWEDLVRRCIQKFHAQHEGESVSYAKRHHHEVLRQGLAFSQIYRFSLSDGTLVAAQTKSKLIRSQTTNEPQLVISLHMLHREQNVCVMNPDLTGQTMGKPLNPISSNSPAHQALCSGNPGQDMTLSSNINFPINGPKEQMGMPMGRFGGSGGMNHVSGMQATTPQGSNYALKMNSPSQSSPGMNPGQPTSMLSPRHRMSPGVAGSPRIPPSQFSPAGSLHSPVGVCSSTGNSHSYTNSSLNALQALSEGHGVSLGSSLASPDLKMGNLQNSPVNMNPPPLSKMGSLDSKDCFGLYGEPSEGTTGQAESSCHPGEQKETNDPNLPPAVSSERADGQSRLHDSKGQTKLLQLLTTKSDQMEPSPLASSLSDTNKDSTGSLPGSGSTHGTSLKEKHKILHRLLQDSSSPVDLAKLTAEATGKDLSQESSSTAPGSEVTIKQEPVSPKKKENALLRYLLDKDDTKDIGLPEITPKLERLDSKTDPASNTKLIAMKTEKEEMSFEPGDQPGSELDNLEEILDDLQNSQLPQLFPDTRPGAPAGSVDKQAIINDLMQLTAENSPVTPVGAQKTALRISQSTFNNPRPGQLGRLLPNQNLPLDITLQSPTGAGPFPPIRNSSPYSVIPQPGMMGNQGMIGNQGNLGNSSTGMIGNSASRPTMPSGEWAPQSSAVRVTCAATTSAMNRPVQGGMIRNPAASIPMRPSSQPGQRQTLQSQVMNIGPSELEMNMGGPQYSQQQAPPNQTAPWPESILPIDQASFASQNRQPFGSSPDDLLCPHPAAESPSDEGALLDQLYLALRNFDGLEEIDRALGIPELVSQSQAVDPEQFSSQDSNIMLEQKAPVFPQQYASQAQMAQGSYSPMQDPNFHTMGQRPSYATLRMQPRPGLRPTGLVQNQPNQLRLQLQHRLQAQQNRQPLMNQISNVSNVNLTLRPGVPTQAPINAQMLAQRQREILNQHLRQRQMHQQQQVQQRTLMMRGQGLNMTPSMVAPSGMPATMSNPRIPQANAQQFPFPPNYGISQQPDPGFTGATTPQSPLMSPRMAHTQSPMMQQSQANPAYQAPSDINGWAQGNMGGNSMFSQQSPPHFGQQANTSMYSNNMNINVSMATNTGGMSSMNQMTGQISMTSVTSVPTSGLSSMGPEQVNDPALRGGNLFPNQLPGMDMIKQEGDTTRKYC

For `CC12CCC(C(=O)N(CSC(=S)N/N=C\c3ccccc3O)C1=O)C2(C)C` (centres undefined), the EC50 is 7.15 µM (active) in experiment [1]; 2.43 µM (active) in experiment [2]; 34.9 µM (not active) in experiment [3]; > 150 µM (not active) at Streptokinase A; 7.31 µM (active) in experiment [4]; 5.29 µM (active) in the experiment on Streptococcus. Also, the IC50 on Nonstructural protein 1 is 2.09 µM (active).

In the case of `O=C(CSc1ncnc2c1oc1ccccc12)Nc1nc2ccccc2s1`, the EC50 is > 79.4 µM (inactive) in [1], > 79.4 µM (not active) in [3] and > 79.4 µM (not active) in [4].

As for `O=C(Nc1ccc2[nH]c(O)nc2c1)c1ccc([N+](=O)[O-])o1`, the results for the IC50 (on Exodeoxyribonuclease V; in experiment [5]) were > 119 µM (inactive) and 29 µM (inactive), respectively.

Regarding `O=C(NNC(=O)c1cccc(Br)c1)C(=O)N1CCCCC1`, the IC50 in experiment [6], in experiment [7] and in [8] was > 79.4 µM (inactive) each time.

As for `CCCCC(C(=O)OCC)C(N)Cc1ccc(F)cc1` (centres undefined), the IC50 in experiment [6], in experiment [7] and in [8] was > 79.4 µM (inactive) in each case.

Turning to `CCOC(=O)C(NC(=O)CCl)(Nc1ccc(C(O)(C(=O)OCC)C(F)(F)F)cc1)C(F)(F)F` (centres undefined), the IC50 in experiment [6], in experiment [7] and in experiment [8] was > 79.4 µM (inactive) in each case.

In the case of `COc1ccc2nc(SCc3cccnc3)c(C#N)cc2c1`, the results for the EC50 in [1], in [3] and in experiment [4] were 9.56 µM (active), 22.1 µM (not active) and 9.26 µM (active), respectively.
